{"source": "ChEMBL document CHEMBL1667824", "about": "(Bioorg Med Chem, 2011)", "key": {"Lactoylglutathione lyase [1]": {"molecular_target": "T1, Lactoylglutathione lyase (Homo sapiens, UniProt Q04760)", "T1 sequence (Q04760 whole entry)": "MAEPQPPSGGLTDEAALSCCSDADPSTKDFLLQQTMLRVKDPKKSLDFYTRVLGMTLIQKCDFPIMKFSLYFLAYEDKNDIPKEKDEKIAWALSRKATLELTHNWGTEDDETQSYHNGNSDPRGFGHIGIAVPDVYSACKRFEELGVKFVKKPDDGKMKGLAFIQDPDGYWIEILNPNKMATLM", "assay": "Inhibition of human recombinant His-tagged glyoxalase 1 expressed in Escherichia coli BL21 (DE3) preincubated for 20 mins by Dixon plot analysis"}, "Lactoylglutathione lyase [2]": {"molecular_target": "T1, Lactoylglutathione lyase", "assay": "Inhibition of glyoxalase 1"}}, "data": [{"molecule": "COc1cc(/C=C/C(O)=C/C(C)=O)ccc1O", "values": [{"measurement": "Ki", "setting": "Lactoylglutathione lyase [1]", "result": 90, "unit": "µM"}]}, {"molecule": "COc1cc(/C=C/C(=O)C(=Cc2ccc(F)cc2)C(=O)/C=C/c2ccc(O)c(OC)c2)ccc1O", "values": [{"measurement": "Ki", "setting": "Lactoylglutathione lyase [1]", "result": 3.2, "unit": "µM"}]}, {"molecule": "CC(=O)C(=Cc1ccc([N+](=O)[O-])o1)C(C)=O", "values": [{"measurement": "Ki", "setting": "Lactoylglutathione lyase [1]", "result": 27, "unit": "µM"}]}, {"molecule": "O=C(/C=C(O)/C=C/c1ccco1)/C=C/c1ccco1", "values": [{"measurement": "Ki", "setting": "Lactoylglutathione lyase [1]", "result": 1500, "unit": "µM"}]}, {"molecule": "CCOC(=O)/C(=C\\c1cccc([N+](=O)[O-])c1)C(C)=O", "values": [{"measurement": "Ki", "setting": "Lactoylglutathione lyase [1]", "result": 65, "unit": "µM"}]}, {"molecule": "O=C(O)C(=Cc1cccc([N+](=O)[O-])c1)C(=O)O", "values": [{"measurement": "Ki", "setting": "Lactoylglutathione lyase [1]", "result": 426, "unit": "µM"}]}, {"molecule": "O=C(/C=C(O)/C=C/c1ccc(F)cc1)/C=C/c1ccc(F)cc1", "values": [{"measurement": "Ki", "setting": "Lactoylglutathione lyase [1]", "result": 4.6, "unit": "µM"}]}, {"molecule": "NC(=O)/C=C/c1ccc(F)cc1", "values": [{"measurement": "Ki", "setting": "Lactoylglutathione lyase [1]", "result": 1390, "unit": "µM"}]}, {"molecule": "Cc1cc(CC(=O)O)n(C)c1C(=O)c1ccc(Cl)cc1", "note": "[ZOMEPIRAC]", "values": [{"measurement": "Ki", "setting": "Lactoylglutathione lyase [1]", "result": 335, "unit": "µM"}, {"measurement": "Ki", "setting": "Lactoylglutathione lyase [2]", "result": 107, "unit": "µM"}]}, {"molecule": "CC(C(=O)O)c1cccc(Oc2ccccc2)c1", "note": "(configuration not stated) [FENOPROFEN]", "values": [{"measurement": "Ki", "setting": "Lactoylglutathione lyase [1]", "result": 383, "unit": "µM"}, {"measurement": "Ki", "setting": "Lactoylglutathione lyase [2]", "result": 400, "unit": "µM"}]}, {"molecule": "CC1=C(CC(=O)O)c2cc(F)ccc2/C1=C\\c1ccc([S+](C)[O-])cc1", "note": "(configuration not stated)", "values": [{"measurement": "Ki", "setting": "Lactoylglutathione lyase [1]", "result": 139, "unit": "µM"}, {"measurement": "Ki", "setting": "Lactoylglutathione lyase [2]", "result": 77.9, "unit": "µM"}]}, {"molecule": "COc1cc(/C=C/C(=O)C(=Cc2cccc(F)c2)C(=O)/C=C/c2ccc(O)c(OC)c2)ccc1O", "values": [{"measurement": "Ki", "setting": "Lactoylglutathione lyase [1]", "result": 2.6, "unit": "µM"}]}, {"molecule": "COc1ccc(/C=C/C(=O)C(=Cc2ccc(C=O)c(C=O)c2)C(=O)/C=C/c2ccc(OC)c(OC)c2)cc1OC", "values": [{"measurement": "Ki", "setting": "Lactoylglutathione lyase [1]", "result": 3.6, "unit": "µM"}]}, {"molecule": "COc1cc(/C=C/C(O)=C/C(=O)/C=C/c2ccc[nH]2)ccc1O", "values": [{"measurement": "Ki", "setting": "Lactoylglutathione lyase [1]", "result": 18, "unit": "µM"}]}, {"molecule": "COc1ccc(/C=C/C(=O)C(=CO)C(=O)/C=C/c2ccc(OC)cc2)cc1", "values": [{"measurement": "Ki", "setting": "Lactoylglutathione lyase [1]", "result": 109, "unit": "µM"}]}, {"molecule": "COc1cc(/C=C/C(=O)C(=Cc2ccc(OC)c(OC)c2)C(=O)/C=C/c2ccc(O)c(OC)c2)ccc1O", "values": [{"measurement": "Ki", "setting": "Lactoylglutathione lyase [1]", "result": 4.6, "unit": "µM"}]}, {"molecule": "CC(=O)C(=Cc1cccc([N+](=O)[O-])c1)C(C)=O", "values": [{"measurement": "Ki", "setting": "Lactoylglutathione lyase [1]", "result": 91, "unit": "µM"}]}, {"molecule": "CCOC(=O)/C=C/c1ccc(O)c(OC)c1", "note": "[ETHYL FERULATE]", "values": [{"measurement": "Ki", "setting": "Lactoylglutathione lyase [1]", "result": 385, "unit": "µM"}]}, {"molecule": "O=C(/C=C/c1ccc(O)cc1)CC(=O)/C=C/c1ccc(O)cc1", "note": "[BISDEMETHOXYCURCUMIN]", "values": [{"measurement": "Ki", "setting": "Lactoylglutathione lyase [1]", "result": 18, "unit": "µM"}]}, {"molecule": "COc1cc(C=C(C(=O)/C=C/c2ccc(O)c(OC)c2)C(=O)/C=C/c2ccc(O)c(OC)c2)ccc1O", "values": [{"measurement": "Ki", "setting": "Lactoylglutathione lyase [1]", "result": 3.6, "unit": "µM"}]}, {"molecule": "COc1ccc2c(c1)c(CC(=O)O)c(C)n2C(=O)c1ccc(Cl)cc1", "note": "[INDOMETHACIN]", "values": [{"measurement": "Ki", "setting": "Lactoylglutathione lyase [1]", "result": 24, "unit": "µM"}, {"measurement": "Ki", "setting": "Lactoylglutathione lyase [2]", "result": 18.1, "unit": "µM"}]}, {"molecule": "COC(=O)/C=C/c1ccc(F)cc1", "values": [{"measurement": "Ki", "setting": "Lactoylglutathione lyase [1]", "result": 1910, "unit": "µM"}]}, {"molecule": "COc1ccc(/C=C/C(=O)/C=C(O)/C=C/c2ccc(O)cc2)cc1OC", "values": [{"measurement": "Ki", "setting": "Lactoylglutathione lyase [1]", "result": 29, "unit": "µM"}]}, {"molecule": "COc1ccc(C=C(C(C)=O)C(C)=O)cc1", "values": [{"measurement": "Ki", "setting": "Lactoylglutathione lyase [1]", "result": 383, "unit": "µM"}]}, {"molecule": "CCOC(=O)/C(=C\\c1ccc([N+](=O)[O-])cc1)C(C)=O", "values": [{"measurement": "Ki", "setting": "Lactoylglutathione lyase [1]", "result": 159, "unit": "µM"}]}, {"molecule": "COc1ccc(/C=C/C(=O)/C=C(O)/C=C/c2ccc(CO)o2)cc1", "values": [{"measurement": "Ki", "setting": "Lactoylglutathione lyase [1]", "result": 74, "unit": "µM"}]}, {"molecule": "CCOC(=O)/C(=C\\C=C(\\C(C)=O)C(=O)OCC)C(C)=O", "values": [{"measurement": "Ki", "setting": "Lactoylglutathione lyase [1]", "result": 39, "unit": "µM"}]}, {"molecule": "COc1ccc2c(c1)c(CC(=O)OCC(=O)O)c(C)n2C(=O)c1ccc(Cl)cc1", "note": "[ACEMETACIN]", "values": [{"measurement": "Ki", "setting": "Lactoylglutathione lyase [1]", "result": 49, "unit": "µM"}, {"measurement": "Ki", "setting": "Lactoylglutathione lyase [2]", "result": 12.9, "unit": "µM"}]}, {"molecule": "Cc1ccc(C(=O)c2ccc(CC(=O)O)n2C)cc1", "note": "[TOLMETIN]", "values": [{"measurement": "Ki", "setting": "Lactoylglutathione lyase [1]", "result": 1010, "unit": "µM"}, {"measurement": "Ki", "setting": "Lactoylglutathione lyase [2]", "result": 87.8, "unit": "µM"}]}, {"molecule": "CC(C(=O)O)c1cccc(C(=O)c2ccccc2)c1", "note": "(configuration not stated) [KETOPROFEN]", "values": [{"measurement": "Ki", "setting": "Lactoylglutathione lyase [1]", "result": 843, "unit": "µM"}, {"measurement": "Ki", "setting": "Lactoylglutathione lyase [2]", "result": 414, "unit": "µM"}]}]}
